The text below walks through data of patent US20240122179A1, “AUXINIC HERBICIDES AND METHODS OF USE THEREOF” (CORTEVA AGRISCIENCE LLC, priority 2021, published 2024).

Where two headings read alike, the source gives them in different places.

Data set [1] is described as follows: Volatility of compounds measured by thermogravimetric analysis (TGA), rate of weight loss. It counts as physicochemical. Particulars: estimates of volatility. From the text:
Briefly, the rate of weight loss measured in units of […]g/min can be used to determine vapor pressure as shown by the simplified equation: wherein, k is the intrinsic volatility and A is the surface area, Referring now to FIG. 2. A graph of weight loss as function of time for solid samples produces a linear curve; the slope of the curve is the rate of weight loss. When this method is used to measure the volatility of aqueous salt concentrates or liquid concentrates, the water or acetone present in the sample volatilizes before the sample of interest. The first linear loss region of the curve is the loss of water or acetone and the second linear region is characteristic of the sample of interest. In order to illustrate the difference in volatility between some of the compounds disclosed herein and the widely used herbicide dicamba, data from both the compounds and dicamba are presented Table 3 and in FIG. 1.

The next data set concerns Amaranthus rudis (AMATA). Kind of data set: Postemergence herbicide evaluation, percent reduction in plant size vs untreated control, 21 days after treatment. Particulars: Amaranthus tuberculatus, post-emergence, 504 h, AMATA, postemergence, read-out: Control/Injury; for pest or weed control at 140 g/ha: rate 140 g ae/ha; for pest or weed control at 280 g/ha: rate 280 g ae/ha. It counts as in vivo, Amaranthus rudis (tall water hemp). Summed up: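 Growth-reduction values are percent decrease in plant size relative to untreated plants, scored 21 days post-application. Amaranthus rudis (2-8 leaves) received postemergence sprays at 140 or 280 g ae/ha, 187 L/ha, in a mixed acetone/DMSO/water/isopropanol carrier with crop oil concentrate. Greenhouse conditions were 25-28° C, 50-60% RH; 3-4 randomized replicates.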

Data set [2] concerns Ambrosia artemisiifolia (AMBEL). The description is as above. It counts as in vivo, Ambrosia artemisiifolia (common ragweed). Particulars: post-emergence, 504 h, AMBEL, postemergence, read-out: Control/Injury; for pest or weed control at 140 g/ha: rate 140 g ae/ha; for pest or weed control at 280 g/ha: rate 280 g ae/ha. Summed up:
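Test compounds at 140 or 280 g ae/ha were applied by track sprayer (187 L/ha, spray solution containing acetone/DMSO, isopropanol, crop oil, surfactant) to 2–8 leaf plants, 3–4 replicates. Plants were kept in a greenhouse at 25–28 °C. Size reduction was scored against untreated controls at 21 days.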

Another data set deals with Kochia scoparia (KCHSC). The data set is described as above. The note with it: Bassia scoparia, post-emergence, 504 h, KCHSC, postemergence, 21 days after treatment, read-out: Control/Injury; for pest or weed control at 140 g/ha: rate 140 g ae/ha; for pest or weed control at 280 g/ha: rate 280 g ae/ha. It counts as in vivo. Summed up: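 Values are percent reduction in plant size against an untreated control, measured 21 days after a single postemergence spray at 140 or 280 g ae/ha (187 L/ha, 276 kPa). Treatments used 3-4 randomized complete-block replicates on 2 to 8 leaf-stage plants kept in a 25-28 °C greenhouse, with compounds in acetone/DMSO-based solvent containing crop oil and surfactant.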

Data set [3] has as its system Amaranthus palmeri (AMAPA). The description is as above. It counts as in vivo, Amaranthus palmeri (Palmer amaranth). Particulars: post-emergence, 504 h, postemergence, read-out: Control/Injury; for pest or weed control at 140 g/ha: rate 140 g ae/ha; for pest or weed control at 280 g/ha: rate 280 g ae/ha. Summed up: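 Percent reduction in plant size relative to untreated plants, measured 21 days after track-sprayer application (187 L/ha) of 140 or 280 g ae/ha to Amaranthus palmeri at the 2 to 8 leaf stage. Randomized complete block, 3 or 4 replicates, greenhouse at 25 to 28° C; spray solution acetone/DMSO with isopropanol, water and crop oil concentrate.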

Data set [4] deals with Conyza canadensis (L.) (ERICA). The data set is described as above. It counts as in vivo, Conyza canadensis (L.) (Horseweed). Particulars: Erigeron canadensis, post-emergence, 504 h, ERICA, postemergence, read-out: Control/Injury; for pest or weed control at 140 g/ha: rate 140 g ae/ha; for pest or weed control at 280 g/ha: rate 280 g ae/ha. Summed up: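 Track-sprayer applications (187 L/ha, 276 kPa) of 140 or 280 g ae/ha, technical material dissolved in acetone/DMSO then diluted with crop oil and surfactant-containing solvent, to greenhouse Conyza canadensis at 2-8 leaves. After 21 days, size reduction relative to untreated plants was recorded; 3-4 randomized replicates.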

In another data set the test system is Glycine max. The data set can be described thus: whole plant or invertebrate. Particulars: Glycine max, post-emergence, 504 h, read-out: Control/Injury. In outline:
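Greenhouse soybean (25–28 °C, 16 h light) sprayed post-emergence at 2–8 leaf stage with 140 or 280 g ae/ha in acetone/DMSO-based spray solution with crop oil concentrate, 187 L/ha by track sprayer; 3–4 replicates, randomized blocks. Plant size reduction versus untreated control measured 21 days after treatment.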

The mark [5] stands for this setting: percent reduction vs untreated control.
Where [6] appears, read: R-AMAPA, percent reduction vs untreated control, 21 days after treatment.
The mark [7] stands for this setting: percent reduction vs untreated control, 21 days after treatment.
Setting [8] is: percent reduction vs untreated, 21 days after treatment.

Turning to `COc1c(Cl)ccc(Cl)c1C(=O)O/N=C(\SC)c1ccccc1` [Compound A-85], in data set [1], the Volatility was 0.28 ng/min. In addition, the pest or weed control at 140 g/ha was 57% in the data set with Amaranthus rudis (AMATA); 67% in data set [2]; 95% in the data set with Kochia scoparia (KCHSC) (setting [5]); 68% in data set [3] (setting [6]); 37% in data set [4] (setting [7]). Moreover, the pest or weed control at 280 g/ha stood at 73% in the data set on Amaranthus rudis (AMATA); 78% in data set [2]; 97% in the data set on Kochia scoparia (KCHSC) (setting [5]); 72% in data set [3] (setting [6]); 68% in data set [4] (setting [7]). The plant injury at 140 g/ha in the data set with Glycine max was determined as 5%. Besides, in the data set on Glycine max, the plant injury at 280 g/ha stood at 7%.

Consider `COc1c(Cl)ccc(Cl)c1C(=O)O/N=C/c1ccco1` [Compound A-88], for which, in data set [1], the Volatility was 0.35 ng/min. Besides, the pest or weed control at 140 g/ha in the data set with Amaranthus rudis (AMATA) is 72%; in data set [2], 70%; in the data set on Kochia scoparia (KCHSC) (setting [5]) it was 87%; in data set [3] (setting [6]) it was 67%; in data set [4] (setting [7]) it was 75%. Further, the pest or weed control at 280 g/ha in the data set with Amaranthus rudis (AMATA) is 80%; in data set [2], 82%; in the data set with Kochia scoparia (KCHSC) (setting [5]) it was 94%; in data set [3] (setting [6]), 68%; in data set [4] (setting [7]), 94%. Moreover, the plant injury at 140 g/ha with Glycine max was found to be 10%. Moreover, the plant injury at 280 g/ha with Glycine max was 3%.

In the case of `COc1c(Cl)ccc(Cl)c1C(=O)N(C)OC` [Compound A-129], the Volatility in data set [1] is reported as 13.4 ng/min. The pest or weed control at 140 g/ha is 20% in the data set on Amaranthus rudis (AMATA); 10% in data set [2]; 0% with Kochia scoparia (KCHSC) (percent reduction vs untreated); 8% in data set [3] (AMAPA); 38% in data set [4]. In addition, the pest or weed control at 280 g/ha in the data set on Amaranthus rudis (AMATA) amounted to 23%; in data set [2] it was 15%; in the data set with Kochia scoparia (KCHSC) (percent reduction vs untreated) it was 5%; in data set [3] (AMAPA) it was 20%; in data set [4], 0%.

Turning to `COc1c(Cl)ccc(Cl)c1C(=O)Nc1ccnn1C` [Compound A-134], the Volatility in data set [1] is given as 0.01 ng/min. Moreover, the pest or weed control at 140 g/ha worked out at 15% in the data set with Amaranthus rudis (AMATA); 33% in data set [2]; 0% in the data set on Kochia scoparia (KCHSC) (percent reduction vs untreated); 15% in data set [3] (AMAPA); 5% in data set [4]. Moreover, the pest or weed control at 280 g/ha in the data set with Amaranthus rudis (AMATA) amounted to 8%; in data set [2], 30%; in the data set with Kochia scoparia (KCHSC) (percent reduction vs untreated), 0%; in data set [3] (AMAPA), 15%; in data set [4] (setting [8]) it was 10%.

Consider `COc1c(Cl)ccc(Cl)c1C(=O)O/N=C(/C)N` [Compound A-136], for which the Volatility in data set [1] is given as 0.086 ng/min. Further, the pest or weed control at 140 g/ha in the data set with Amaranthus rudis (AMATA) turned out to be 68%; in data set [2], 87%; in the data set with Kochia scoparia (KCHSC) (percent reduction vs untreated) it was 76%; in data set [3] (AMAPA), 85%; in data set [4] (setting [8]) it was 94%. Further, the pest or weed control at 280 g/ha in the data set on Amaranthus rudis (AMATA) turned out to be 74%; in data set [2], 96%; in the data set on Kochia scoparia (KCHSC) (percent reduction vs untreated), 94%; in data set [3] (AMAPA), 90%; in data set [4] (setting [8]) it was 99%.

For `CCCC[C@H](CC)COC(=O)c1c(Cl)ccc(Cl)c1OC` [Compound A-137], in data set [1], the Volatility was 3.42 ng/min. The pest or weed control at 140 g/ha in the data set on Amaranthus rudis (AMATA) is 1%; in data set [2], 33%; in the data set on Kochia scoparia (KCHSC) (percent reduction vs untreated), 6%; in data set [3] (AMAPA) it was 15%; in data set [4] (setting [8]) it was 0%. The pest or weed control at 280 g/ha was 8% in the data set with Amaranthus rudis (AMATA); 36% in data set [2]; 3% with Kochia scoparia (KCHSC) (percent reduction vs untreated); 15% in data set [3] (AMAPA); 0% in data set [4] (setting [8]).

`COc1c(Cl)ccc(Cl)c1C(=O)O/N=C(\N)c1ccc2ccccc2c1` [Compound A-138]: in data set [1], the Volatility is recorded as 0.008 ng/min. Moreover, the pest or weed control at 140 g/ha in the data set with Amaranthus rudis (AMATA) came out at 65%; in data set [2], 79%; with Kochia scoparia (KCHSC) (percent reduction vs untreated), 91%; in data set [3] (AMAPA), 73%; in data set [4] (setting [8]), 75%. In addition, the pest or weed control at 280 g/ha in the data set with Amaranthus rudis (AMATA) was determined as 64%; in data set [2], 76%; in the data set with Kochia scoparia (KCHSC) (percent reduction vs untreated), 91%; in data set [3] (AMAPA), 59%; in data set [4] (setting [8]), 70%.
